Laboratory results: PMC11487561 (ACS Chemical Neuroscience, 2024)
Like-named read-outs stand apart in the source and are kept apart here.

What was measured:
[1] = Rat plasma-to-brain level (PBL) cassette, brain distribution; assay type: in vivo; settings: 0.2 mg/kg, SD rat, 0.2 mg/kg IV; for Kp at 0.25 h / Kp uu at 0.25 h: male, Sprague-Dawley, rat, brain / plasma, iv
[2] = Intrinsic clearance in rat liver microsomes; assay type: in vitro ADME; settings: pH 7.4; rat liver microsomes
Procedure: (§1) Intrinsic Clearance in Rat and Human Liver Microsomes
(§2) The in vitro intrinsic clearance (CL int) was investigated in commercially obtained hepatic microsomes from rat and human donors using the substrate depletion (i.e., loss-of-parent vs. time, or t 1/2 method) approach with analyte detection via liquid chromatography-tandem mass spectrometry (LC-MS/MS). For each species, mean %parent remaining values at each time point were calculated from replicates raw data (analyte:IS peak area ratios) and used to determine in vitro t 1/2 and CLint.
(§3) Experiments were carried out using a robot-assisted (TECAN model Evo 200). Compound was incubated (1 µM final concentration) in buffer (100 mM potassium phosphate pH 7.4 with 3 mM MgCl2) containing hepatic microsomes (0.5 mg/mL final concentration) from multiple species, discretely, at 37 °C under constant orbital shaking. After 5 minutes (pre-incubation), reactions were initiated by addition of nicotinamide adenine dinucleotide phosphate (NADPH, 1 mM final concentration). At selected time intervals (0, 3, 7, 15, 25, and 45 minutes) post-addition of NADPH, aliquots (50 µL) were taken and placed into a 96-shallow-well plate containing ice cold acetonitrile (150 µL) with carbamazepine (IS, 50 nM). The plates were then centrifuged (3000 rcf at 4 °C) for 10 minutes. The supernatants were transferred to a new 96-shallow-well daughter plate and diluted (1:1 v/v) with water (Milli-Q filtered). The plates were then sealed in preparation for LC-MS/MS analysis (see below).
(§4) Raw LC-MS/MS peak area data generated from the assay samples were used to construct natural log-transformed %parent remaining vs. time plots (using t = 0 minute post-NADPH addition sample data as starting point set to 100%). In vitro compound half-life (t 1/2) values were obtained using the following […]
(§5) k is the slope from linear regression analysis of the natural log-transformed data (using means from Where all replicates at each time point). Resulting t 1/2 values were then used to calculate hepatic CLint values according to the following equation and with the use of species-specific scale-up factors for liver weight (grams) per total body weight (kg): […]
(§6) CLint = in vitro t1/2 x 0.5 mg microsomes x 1 gram liver x kg body wt aScale-up factors used are 45 (rat) and 20 (human).2
(§7) Predicted hepatic clearance (CLhep) was calculated using the following equation: […]
(§8) Qh represents hepatic blood flow (mL/min/kg): 21 for human, 70 for rat, and 90 for mouse.
(§9) Prepared samples were injected (10 µL each) onto an AB Sciex Triple Quad 4500 mass spectrometer system with an Agilent 1260 Infinity II pump and autosampler. Mass spectrometer conditions are described in Table S1. Quantitation of compounds was performed via AB Sciex Multiquant software using the raw analyte:IS peak area ratios. The typical detection range was 0.5 ng/mL to ≥ 5,000 ng/mL utilizing a quadratic equation regression with 1/x2 weighting. […]
(§10) Table S1. LC-MS/MS Conditions*
(§11) Mobile phase A 0.5% Formic Acid in Water
(§12) Mobile phase B 0.5% Formic Acid in Acetonitrile
(§13) Gradient Time % Mobile Phase B

[3] = Binding in brain homogenate from rat (equilibrium dialysis); assay type: in vitro ADME; settings: for rat fbrain: fraction unbound, equilibrium dialysis, rat brain homogenates; for fraction unbound at 6 h, 1 µM: rat, brain homogenate, in %, read-out: fu,brain (rat brain homogenate)
Procedure: Binding in brain homogenate from rat.
Determination of fraction unbound (f u) in brain homogenate from rat was conducted using the same methodology and procedure than described for plasma protein binding assay with the following modifications: 1) a final compound concentration of 1 μM was used, 2) naïve rat brains were homogenized in DPBS (1:3 composition of brain: DPBS, w/w) using a Mini-Bead Beater™ machine in order to obtain […]
The diluted fraction unbound (f u2) in brain was calculated as (analyte to IS MS peak area ratio from Trans-buffer side) / (analyte to IS MS peak area ratio from Cis-brain homogenate side). Undiluted fraction unbound for the brain was calculated using the following equation: […]
Mean values for each species were calculated from 3 replicates. […]

[4] = Binding in plasma from human (equilibrium dialysis); assay type: in vitro ADME; settings: for fraction unbound at 6 h, 5 µM: human, plasma, read-out: human fu,plasma
Procedure: (§14) Binding in plasma from rat and human.
(§15) Determination of compounds’ fraction unbound (f u) in plasma from rat and human was conducted in vitro via equilibrium dialysis using HTDialysis membrane plates. Dialysis membranes (four paired strips per HTD assay) were hydrated as described by the manufacturer and inserted into the HTD plate, which was assembled and prepared for sample addition by the dispensing of blank buffer (DPBS, 100 µL/well) into the ‘top half’ of each membrane-split well. Each compound was diluted into plasma from each species (5 µM final concentration), which was aliquoted in triplicate to the ‘bottom half’ of the prepared HTD plate wells. The HTD plate was sealed and incubated for 6 hours at 37 °C. Following incubation, each well (both top and bottom halves) were transferred (20 µL) to the corresponding wells of a 96-shallow-well (V-bottom) plate. The daughter plates were then matrix-matched (buffer side wells received equal volume of plasma, and plasma side wells received equal volume of buffer), and extraction solution (120 µL; acetonitrile containing 50 nM carbamazepine as IS) was added to all wells of both daughter plates to precipitate protein and extract test article. The plates were then sealed and centrifuged (3500 rcf) for 10 minutes at ambient temperature. Supernatant (60 µL) from each well of the daughter plates was then transferred to the corresponding wells of new daughter plates (96-shallow-well, V bottom) containing water (Milli-Q, 60 µL/well), and the plates were sealed in preparation for LC-MS/MS analysis (see below). fu was calculated as (analyte to IS MS peak area ratio from Trans-buffer side) / (analyte to IS MS peak area ratio from Cis-plasma side). Mean values for each species were calculated from 3 replicates.

[5] = Intrinsic clearance in human liver microsomes; assay type: in vitro ADME; settings: pH 7.4; human liver microsomes
Procedure: as §1, §2, §3, §4, §5, §6, §7, §8, §9, §10, §11, §12, §13

[6] = molecular target: T1, human M4 (hM4) (Homo sapiens, UniProt P08173); experiment: Calcium mobilization assay, hM4/Gqi5-CHO cells, EC20 acetylcholine (PAM); assay type: cell-based; settings: for fold increase in hM4 potency (EC50) vs comparator analogue: 14h vs 14c, 22g vs 14j, 22j vs 14k, 22k vs 14g, 22f vs 14e; for Emax / EC50 / hM4 pEC50: calcium mobilization, hM4/Gqi5-CHO cells, EC20 acetylcholine; for Emax: read-out: hM4 %ACh Max
T1 construct: expressed in transfected cells
T1 sequence (P08173 1-479): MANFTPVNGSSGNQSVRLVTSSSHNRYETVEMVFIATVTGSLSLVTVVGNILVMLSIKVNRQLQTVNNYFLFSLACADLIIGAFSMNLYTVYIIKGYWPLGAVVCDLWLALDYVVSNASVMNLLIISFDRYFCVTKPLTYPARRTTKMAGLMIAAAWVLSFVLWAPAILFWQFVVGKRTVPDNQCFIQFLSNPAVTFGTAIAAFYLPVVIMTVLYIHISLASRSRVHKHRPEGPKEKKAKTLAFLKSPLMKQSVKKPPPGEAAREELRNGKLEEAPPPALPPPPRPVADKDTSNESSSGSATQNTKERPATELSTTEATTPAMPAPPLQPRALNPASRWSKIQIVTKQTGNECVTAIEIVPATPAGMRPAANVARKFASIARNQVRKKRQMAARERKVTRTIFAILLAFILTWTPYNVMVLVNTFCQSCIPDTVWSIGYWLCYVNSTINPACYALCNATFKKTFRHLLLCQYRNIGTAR

[7] = Binding in plasma from rat (equilibrium dialysis); assay type: in vitro ADME; settings: read-out: rat fu,plasma
Procedure: as §14, §15

[8] = system: amphetamine-induced hyperlocomotion in rats; experiment: Rat amphetamine-induced hyperlocomotion (AHL); assay type: in vivo; settings: 10 mg/kg p.o. + amphetamine 0.75 mg/kg s.c.
Procedure: Rat Amphetamine-Induced Hyperlocomotion (AHL) Protocol
Male Harlan Sprague Dawley rats with a mean body weight of 240 g (range 221-264 g) were tested in SmartFrame Open Field locomotor activity test chambers to automatically record locomotor activity. All rats were habituated in locomotor activity enclosures for 30 min, followed by pretreatment by oral gavage for an additional 30 min with either vehicle or a dose of VU6016235 or the comparator M 4 PAM VU0467154. Next, rats were injected subcutaneously with vehicle or a dose of 0.75 mg/kg amphetamine and then monitored for an additional 60 min. Changes in locomotor activity were recorded for a total of 120 min. Locomotor data were expressed as the number of photobeam breaks/5 min intervals across the 120-min test session or as the total ambulation, calculated as sum of photobeam beam breaks from the time of amphetamine administration (60 min) until the end of the study (120 min). Time course data were analyzed by two-way ANOVA with main effects of treatment and time; changes in total ambulation were analyzed by one-way ANOVA followed by Dunnett’s post hoc test (GraphPad Prism 7 [GraphPad Software, San Diego, CA]). For all tests, α ≤ 0.05 was considered to represent statistical significance.
Finally, percent reversal data were calculated in Microsoft Excel using the following formula: Percent Reversal = 100 - {[(total ambulation in individual animal from t = 60 to t = 120) / (mean total ambulation […]
from t=60 to t=120 in the VAMP group)] * 100}. Mean percent reversal ± S.E.M. was calculated for each dose group using GraphPad Prism 7.
At the end of this behavioral study, each rat was euthanized, then decapitated, and the plasma and brain tissues were collected for the evaluation of exposure levels of VU6016235-05 or VU0467154-9A by pharmacokinetic analysis. […]

[9] = total brain to total plasma ratio
[10] = unbound brain to unbound plasma ratio
[11] = fraction unbound, equilibrium dialysis
[12] = read-out: hM4 pEC50 (converted)

SMILES: COc1ccc(CNc2nccc3c2sc2nc(C)nc(C)c23)cc1F [22j]
- Kp at 0.25 h [1, 9]: 1.69
- Kp uu at 0.25 h [1, 10]: 1.01
- CLint scaled at 1 µM [2]: 386 mL/min/kg
- rat fbrain [3]: 0.009
- fraction unbound at 6 h, 1 µM [3]: < 0.01
- fraction unbound at 6 h, 5 µM [4, 11]: 0.009
- CLint scaled at 1 µM [5]: 50 mL/min/kg
- fold increase in hM4 potency (EC50) vs comparator analogue [6]: 7 fold
- Emax [6]: 94%
- EC50 ([6]; read-out: hM4 EC50): 170 nM
- EC50 [6, 12]: 166 nM
- fraction unbound at 6 h, 5 µM [7, 11]: 0.014

SMILES: Cc1nnc2sc(C(=O)NCc3ccc(S(=O)(=O)C(F)(F)F)cc3)c(N)c2c1C [VU0467154, reference compound]
- mean reversal of AHL [8]: 35.4 ± 4.2%

SMILES: Cc1nc(C)c2c(n1)sc1c(N3CCC(F)(F)C3)nccc12 [22f]
- Kp at 0.25 h [1, 9]: 8.33
- Kp uu at 0.25 h [1, 10]: 2.91
- CLint scaled at 1 µM [2]: 1520 mL/min/kg
- rat fbrain [3]: 0.015
- fraction unbound at 6 h, 1 µM [3]: 0.012 to 0.033
- fraction unbound at 6 h, 5 µM [4, 11]: 0.01
- CLint scaled at 1 µM [5]: 148 mL/min/kg
- fold increase in hM4 potency (EC50) vs comparator analogue [6]: 19 fold
- Emax [6]: 97%
- EC50 ([6]; read-out: hM4 EC50): < 190 nM
- EC50 [6, 12]: 33.1 nM
- fraction unbound at 6 h, 5 µM [7, 11]: 0.043

SMILES: Cc1nc(C)c2c(n1)sc1c(N3CCCCC3)nccc12 [22e]
- Kp at 0.25 h [1, 9]: 7.77
- Kp uu at 0.25 h [1, 10]: 1.64
- CLint scaled at 1 µM [2]: 3440 mL/min/kg
- rat fbrain [3]: 0.004
- fraction unbound at 6 h, 1 µM [3]: < 0.01
- fraction unbound at 6 h, 5 µM [4, 11]: 0.007
- fraction unbound at 6 h, 5 µM ([4]; in %): < 0.01
- human fu,plasma ([4]; in %): highly bound
- CLint scaled at 1 µM [5]: 134 mL/min/kg
- Emax [6]: 58%
- EC50 ([6]; read-out: hM4 EC50): < 190 nM
- EC50 [6, 12]: 74.1 nM
- fraction unbound at 6 h, 5 µM [7, 11]: 0.019

SMILES: Cc1nc(C)c2c(n1)sc1c(N3CC4CC4C3)ncnc12 (centres unmarked) [14i]
- Kp, brain:plasma ([1]; 0.25 h, total brain to total plasma ratio): 7.27
- Kp,uu, brain:plasma ([1]; 0.25 h, unbound brain to unbound plasma ratio): 1.82
- Kp at 0.25 h [1, 9]: > 5
- Kp uu at 0.25 h [1, 10]: > 1
- CLint scaled at 1 µM [2]: 1050 mL/min/kg
- rat fbrain [3]: 0.012
- fraction unbound at 6 h, 1 µM [3]: 0.01 to 0.05
- fraction unbound at 6 h, 5 µM [4, 11]: 0.013
- fraction unbound at 6 h, 5 µM ([4]; in %): 0.01 to 0.05
- CLint scaled at 1 µM [5]: 177 mL/min/kg
- hM4 pEC50 [6]: 6.81
- Emax [6]: 76%
- EC50 ([6]; read-out: hM4 EC50): 160 nM
- fraction unbound at 6 h, 5 µM [7, 11]: 0.048
- fraction unbound at 6 h, 5 µM ([7]; in %): > 0.05

SMILES: Cc1nc(C)c2c(n1)sc1c(N3CCCC3)nccc12 [22k]
- Kp at 0.25 h [1, 9]: 18.6
- Kp uu at 0.25 h [1, 10]: 3.43
- CLint scaled at 1 µM [2]: 3060 mL/min/kg
- rat fbrain [3]: 0.007
- fraction unbound at 6 h, 1 µM [3]: < 0.01
- fraction unbound at 6 h, 5 µM [4, 11]: 0.023
- CLint scaled at 1 µM [5]: 124 mL/min/kg
- fold increase in hM4 potency (EC50) vs comparator analogue [6]: 4 fold
- hM4 pEC50 [6]: 7.14
- Emax [6]: 77%
- EC50 ([6]; read-out: hM4 EC50): < 190 nM
- fraction unbound at 6 h, 5 µM [7, 11]: 0.038
